Experimental data taken from patent publication US11208414B2, “Ectonucleotidase inhibitors and methods of use thereof” (Calithera Biosciences, Inc., priority 2016, dated 2021).

Target: recombinant CD73 (Homo sapiens (Human), UniProt P21589)
Experiment: Inhibition of soluble recombinant CD73 enzyme activity (Malachite Green)
Format: biochemical
Details: recombinant CD73 0.5 nM, AMP 50 μM, 30 minutes at room temperature
Experimental: The concentration of inorganic phosphate was determined using a phosphate standard curve.

Chain of recombinant CD73 (P21589 27-547): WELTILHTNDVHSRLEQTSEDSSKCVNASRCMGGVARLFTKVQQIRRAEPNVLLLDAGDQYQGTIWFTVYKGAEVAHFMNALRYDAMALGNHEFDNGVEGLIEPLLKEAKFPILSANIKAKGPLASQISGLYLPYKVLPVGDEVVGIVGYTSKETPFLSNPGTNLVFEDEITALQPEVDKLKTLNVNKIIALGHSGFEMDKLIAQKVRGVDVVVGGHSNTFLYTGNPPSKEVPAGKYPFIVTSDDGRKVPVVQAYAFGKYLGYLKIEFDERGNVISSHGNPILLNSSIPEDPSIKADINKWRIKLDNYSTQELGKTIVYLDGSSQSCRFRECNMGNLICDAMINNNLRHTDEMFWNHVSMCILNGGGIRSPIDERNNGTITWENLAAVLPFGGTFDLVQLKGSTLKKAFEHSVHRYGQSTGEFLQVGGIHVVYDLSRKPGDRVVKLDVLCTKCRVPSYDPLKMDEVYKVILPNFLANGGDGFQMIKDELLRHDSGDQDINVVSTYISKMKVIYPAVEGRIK

IC50: > 50 µM
Structure (SMILES): Nc1ncnc2c1ncn2[C@@H]1O[C@H](COC(C(=O)O)C(=O)O)[C@@H](O)C1F (stereo in doubt) [compound 9, 2-(((2R,3R,4R,5R)-5-(6-amino-9H-purin-9-yl)-4-fluoro-3-hydroxytetrahydrofuran-2-yl)-methoxy)malonic acid]
